Columns and labels:
human androgen receptor = target: T1, human androgen receptor (Homo sapiens, UniProt P10275); assay: Reporter assay of an androgen receptor responsive sequence (luciferase, transiently transfected HEK293 cells); type: cell-based; settings: 24 hours incubation, relative to activity of 100 nM DHT, read-out: AR transcriptive activity (pEC50) (converted)
T1 construct: expressed in transfected cells; host or cells: HEK293
T1 sequence (P10275 1-920): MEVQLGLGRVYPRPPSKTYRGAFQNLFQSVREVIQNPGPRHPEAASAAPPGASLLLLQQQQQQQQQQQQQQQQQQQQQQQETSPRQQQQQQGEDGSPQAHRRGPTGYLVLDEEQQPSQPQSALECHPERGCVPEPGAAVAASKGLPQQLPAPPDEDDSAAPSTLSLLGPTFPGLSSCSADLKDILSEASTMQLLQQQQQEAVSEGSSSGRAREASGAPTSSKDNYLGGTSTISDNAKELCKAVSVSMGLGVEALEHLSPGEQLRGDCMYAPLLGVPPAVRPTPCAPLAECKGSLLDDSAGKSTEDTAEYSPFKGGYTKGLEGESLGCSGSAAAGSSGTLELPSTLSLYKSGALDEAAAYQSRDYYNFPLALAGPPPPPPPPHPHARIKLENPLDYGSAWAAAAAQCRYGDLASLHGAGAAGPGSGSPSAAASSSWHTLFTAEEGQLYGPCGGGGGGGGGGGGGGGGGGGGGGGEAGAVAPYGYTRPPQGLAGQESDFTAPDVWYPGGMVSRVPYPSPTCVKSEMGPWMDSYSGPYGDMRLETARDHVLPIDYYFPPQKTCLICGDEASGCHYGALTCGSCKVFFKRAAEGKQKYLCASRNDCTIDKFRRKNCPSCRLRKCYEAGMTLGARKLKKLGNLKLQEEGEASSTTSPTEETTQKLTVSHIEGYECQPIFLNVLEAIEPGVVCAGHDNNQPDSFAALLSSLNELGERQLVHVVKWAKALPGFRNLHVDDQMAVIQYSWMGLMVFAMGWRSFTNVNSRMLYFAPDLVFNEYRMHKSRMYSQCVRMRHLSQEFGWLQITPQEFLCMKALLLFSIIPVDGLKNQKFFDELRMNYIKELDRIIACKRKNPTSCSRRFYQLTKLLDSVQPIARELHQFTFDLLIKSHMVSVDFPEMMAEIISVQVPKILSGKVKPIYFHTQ
Outline: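 Agonism scored as pEC50, fitted by 4-parameter curve against the response to 100 nM DHT, from dual-luciferase readout after 24 h compound treatment. Cells were HEK293 co-transfected (3 h) with human AR expression vector, androgen-responsive firefly reporter and Renilla control, in charcoal-stripped serum.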

[1] = target: T2, androgen receptor (AR-LBD) (Rattus norvegicus, UniProt P15207); assay: Evaluation of androgen receptor affinity (PolarScreen Androgen Receptor Competitor Assay Kit, Red; fluorescence polarization); settings: 22° C. for 5 hours, relative to binding rate of 1 μM DHT, read-out: AR affinity (pEC50) (converted)
T2 construct: 5 μL of 2×AR-LBD/Fluoromone AL Red Complex contained in the kit; purchased Invitrogen
T2 sequence (P15207 651-882 limits assumed): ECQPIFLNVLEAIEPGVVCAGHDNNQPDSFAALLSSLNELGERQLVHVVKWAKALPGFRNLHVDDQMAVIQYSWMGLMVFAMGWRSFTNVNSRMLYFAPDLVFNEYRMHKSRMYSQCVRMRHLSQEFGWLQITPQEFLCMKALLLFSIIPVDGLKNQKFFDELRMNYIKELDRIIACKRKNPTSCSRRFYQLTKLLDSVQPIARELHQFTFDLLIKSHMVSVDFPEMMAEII
Outline: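 Test compound and the 2× AR-LBD/Fluoromone AL Red complex were combined in duplicate wells. After reacting 5 h at 22° C, polarization was measured. pEC50 was derived by 4-parameter fitting, normalizing to binding obtained with 1 μM dihydrotestosterone.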

Row | Compound | EC50 (human androgen receptor) [nM] | EC50 [1] [nM]
1 | CS(=O)(=O)NC(=O)c1nc(N(Cc2ccc(Cl)cn2)c2ccc(C#N)cc2)sc1C1CC1 [Compound 658, 2-[N-[(5-chloro-2-pyridyl)methyl]-4-cyano-anilino]-5-cyclopropyl-N-methylsulfonyl-thiazole-4-carboxamide] | 5010 | 100
2 | COCCCS(=O)(=O)NC(=O)c1nc(N(CCc2ccc(C#N)cc2)Cc2ccc(OC(F)F)cc2)oc1C [Compound 557, 2-[2-(4-cyanophenyl)ethyl-[[4-(difluoromethoxy)phenyl]methyl]amino]-N-(3-methoxypropylsulfonyl)-5-methyl-oxazole-4-carboxamide] | 631 | 39.8
3 | Cc1sc(N(Cc2ccc3nccnc3c2)c2ccc(C#N)cc2)nc1C(=O)NS(C)(=O)=O [Compound 404, 2-[4-cyano-N-(quinoxalin-6-ylmethyl)anilino]-5-methyl-N-methylsulfonyl-thiazole-4-carboxamide] | 3160 | 1000
4 | Cc1sc(N(Cc2ccccc2)c2ccc(S(F)(F)(F)(F)F)cc2)nc1C(=O)NS(C)(=O)=O [Example 241, 2-[N-benzyl-4-(pentafluorosulfanyl)anilino]-5-methyl-N-methylsulfonyl-thiazole-4-carboxamide] | 1000 | 316
5 | COCCCS(=O)(=O)NC(=O)c1nc(N(Cc2ccc(Cl)cn2)c2ccc(C#N)cc2)sc1C1CC1 [Example 283, 2-[N-[(5-chloro-2-pyridyl)methyl]-4-cyano-anilino]-5-cyclopropyl-N-(3-methoxypropylsulfonyl)thiazole-4-carboxamide] | > 10000 | 200
6 | Cc1sc(N(Cc2cnc(-c3ccc(F)cc3)s2)c2ccc(C#N)cc2)nc1C(=O)NS(C)(=O)=O [Compound 494, 2-[4-cyano-N-[[2-(4-fluorophenyl)thiazol-5-yl]methyl]anilino]-5-methyl-N-methylsulfonyl-thiazole-4-carboxamide] | 1000 | 31.6
7 | CS(=O)(=O)NC(=O)c1nc(N(Cc2ccc(Cl)cn2)c2ccc(C#N)cc2)sc1Br [Compound 641, 5-bromo-2-[N-[(5-chloro-2-pyridyl)methyl]-4-cyano-anilino]-N-methylsulfonyl-thiazole-4-carboxamide] | 79.4 | 126
8 | Cc1sc(N(CC2CCCCCC2)c2ccc(C#N)cc2)nc1C(=O)NS(C)(=O)=O [Compound 365, 2-[4-cyano-N-(cycloheptylmethyl)anilino]-5-methyl-N-methylsulfonyl-thiazole-4-carboxamide] | 631 | 25.1
9 | Cc1sc(N(CCC2CCCC2)c2ccc(C#N)cc2)nc1C(=O)NS(C)(=O)=O [Compound 78, 2-[4-cyano-N-(2-cyclopentylethyl)anilino]-5-methyl-N-methylsulfonyl-thiazole-4-carboxamide] | 158 | 25.1
10 | Cc1sc(N(Cc2cc(F)cc(Cl)c2)c2ccc(C#N)cc2)nc1C(=O)NS(C)(=O)=O [Compound 99, 2-[N-[(3-chloro-5-fluoro-phenyl)methyl]-4-cyano-anilino]-5-methyl-N-methylsulfonyl-thiazole-4-carboxamide] | 126 | 63.1
11 | Cc1sc(N(CC(=O)c2ccccc2)Cc2ccccc2)nc1C(=O)NS(C)(=O)=O [Compound 463, 2-[benzyl(phenacyl)amino]-5-methyl-N-methylsulfonyl-thiazole-4-carboxamide] | 5010 | 316
12 | Cc1sc(N(CCC2CCCCC2)Cc2ccc(Cl)cc2)nc1C(=O)NS(=O)(=O)Cc1cccc(F)c1 [Compound 731, 2-[(4-chlorophenyl)methyl-(2-cyclohexylethyl)amino]-N-[(3-fluorophenyl)methylsulfonyl]-5-methyl-thiazole-4-carboxamide] | > 10000 | 501
13 | COCCCS(=O)(=O)NC(=O)c1nc(N(Cc2ccc3ncsc3c2)c2ccc(C#N)cc2)sc1C [Example 195, 2-[N-(1,3-benzothiazol-6-ylmethyl)-4-cyano-anilino]-N-(3-methoxypropylsulfonyl)-5-methyl-thiazole-4-carboxamide] | 126 | 158
14 | Cc1sc(N(Cc2ccccc2)c2ccc(C#N)cc2)nc1C(=O)NS(=O)(=O)C(F)F [Compound 69, 2-(N-benzyl-4-cyano-anilino)-N-(difluoromethylsulfonyl)-5-methyl-thiazole-4-carboxamide] | 1260 | 25.1
15 | CCS(=O)(=O)NC(=O)c1nc(N(CCC2CCCCC2)Cc2ccc(OC(F)(F)F)cc2)sc1C [Compound 733, 2-[2-cyclohexylethyl-[[4-(trifluoromethoxy)phenyl]methyl]amino]-N-ethylsulfonyl-5-methyl-thiazole-4-carboxamide] | > 10000 | 200
16 | Cc1sc(N(CCc2cccc(Cl)c2)Cc2ccccc2)nc1C(=O)NS(C)(=O)=O [Compound 671, 2-[benzyl-[2-(3-chlorophenyl)ethyl]amino]-5-methyl-N-methylsulfonyl-thiazole-4-carboxamide] | 1580 | 50.1

More lines, now with the values ahead:

Row | EC50 (human androgen receptor) [nM] | EC50 [1] [nM] | Compound
17 | > 10000 | 100 | Cc1sc(N(Cc2ccc(OCc3cccnc3)cc2)c2ccc(C#N)cc2)nc1C(=O)NS(C)(=O)=O [Compound 567, 2-[4-cyano-N-[[4-(3-pyridylmethoxy)phenyl]methyl]anilino]-5-methyl-N-methylsulfonyl-thiazole-4-carboxamide]
18 | 1260 | 126 | CS(=O)(=O)NC(=O)c1nc(N(Cc2ccccc2)c2ccc(C#N)cc2)sc1C(F)(F)F [Example 230, 2-(N-benzyl-4-cyano-anilino)-N-methylsulfonyl-5-(trifluoromethyl)thiazole-4-carboxamide]
19 | 794 | 158 | Cc1sc(N(Cc2ccc(OCc3ccccn3)cc2)c2ccc(C#N)cc2)nc1C(=O)NS(C)(=O)=O [Compound 568, 2-[4-cyano-N-[[4-(2-pyridylmethoxy)phenyl]methyl]anilino]-5-methyl-N-methylsulfonyl-thiazole-4-carboxamide]
20 | > 10000 | 631 | COc1ccc(CCN(c2ccc(C#N)cc2)c2nc(C(=O)NS(C)(=O)=O)c(C)s2)cc1 [Compound 400, 2-[4-cyano-N-[2-(4-methoxyphenyl)ethyl]anilino]-5-methyl-N-methylsulfonyl-thiazole-4-carboxamide]
21 | 79.4 | 25.1 | Cc1sc(N(Cc2ccc(F)c(C(F)(F)F)c2)c2ccc(C#N)cc2)nc1C(=O)NS(C)(=O)=O [Example 173, 2-[4-cyano-N-[[4-fluoro-3-(trifluoromethyl)phenyl]methyl]anilino]-5-methyl-N-methylsulfonyl-thiazole-4-carboxamide]
22 | 1000 | 39.8 | CCc1oc(N(Cc2ccc(OC(F)(F)F)cc2)c2ccc(C#N)cc2)nc1C(=O)NS(C)(=O)=O [Compound 632, 2-[4-cyano-N-[[4-(trifluoromethoxy)phenyl]methyl]anilino]-5-ethyl-N-methylsulfonyl-oxazole-4-carboxamide]
23 | 79.4 | 31.6 | CS(=O)(=O)NC(=O)c1nc(N(Cc2cccc(OC(F)(F)F)c2)c2ccc(C#N)cc2)sc1Br [Example 252, 5-bromo-2-[4-cyano-N-[[3-(trifluoromethoxy)phenyl]methyl]anilino]-N-methylsulfonyl-thiazole-4-carboxamide]
24 | 100 | 100 | Cc1sc(N(Cc2csc(C(F)(F)F)n2)c2ccc(C#N)cc2)nc1C(=O)NS(C)(=O)=O [Compound 2, 2-[4-cyano-N-[[2-(trifluoromethyl)thiazol-4-yl]methyl]anilino]-5-methyl-N-methylsulfonyl-thiazole-4-carboxamide]

Source: patent US10689354B2, “Aminoazole derivative” (Teijin Pharma Limited, priority 2015, dated 2020)
